Experimental data reported in patent US11464224B2, “Liquid spreading composition with ectoparasiticidal activity, a method and use thereof for combating ectoparasites in human and veterinary medicine, as well as in agricultural, horticultural and/or garden environments” (priority 2014, dated 2022).
Where two headings read alike, the source gives them in different places.

Columns and labels:
[1] = Spreading test: 5 μl drop on glass plate, area covered after 30 min; format: physicochemical; conditions: 25° C.
Description: The following tests have been performed to measure and compare spreading properties of the composition prepared according to Example 1 (N) with Isopropyl Myristate (IPM) and Diethylene Glycol Monoethyl Ether (DGME), known from the state of art as spreading agents. All compositions acted as a carrier of an active insecticidal substance: clove oil (an insect repellent), S-Methoprene (biochemical pesticide interfering with an insect's lifecycle and preventing it from reaching maturity or reproducing) or Etofenprox (neurotoxic insecticide, which disturbs insect nervous systems).
Area (S) of the surface (cm^2) covered by the composition has been measured after 30 min. As an alternative spreading indicator one might also employ Emollient Skin Spreading Factor as defined by Croda (Croda DS-128, Emollient Skin Spreading Factor (1998)).
The following tests have been performed to measure and compare spreading properties of the composition prepared according to Example 1 with ectoparasiticidal compositions known from the state of art. As in the previous tests 5 μl drop of the composition has been applied in the middle of a glass plate at 25° C. Area of the surface (cm^2) covered by the composition has been measured after 30 min.

adult lice = conditions: cited from earlier work

SMILES	S, area of the surface covered by the composition (active substance carriers) [1] [cm^2]	Mortality of adult lice (adult lice; concentration below 70% by weight)	Mortality of adult lice (adult lice; concentration of over 80% by weight) [%]
CCCCCCCCCCCCCC(=O)OC(C)C [compound 10, Isopropyl Myristate]	0.6	less than 20%	100
CCOCCOCCO [compound 11, Diethylene Glycol Monoethyl Ether]	0.6		
